Reference: publication PMC12586182 (Frontiers in Oncology, 2025)

Legend:
Assay in all cases: Cell viability assay (ATPlite)
Assay type in all cases: cell-based
[1] = test system: OVCAR-3; settings: Homo sapiens; OVCAR-3 cell line, 72 hours incubation
Description: (§1) Intracellular ATP content was used as an indirect readout of cell number using the ATPlite 1Step bioluminescence assay (Revvity, Groningen, the Netherlands). Cells were seeded in 384-well plates at an optimized density to ensure unrestricted growth and maximal signal at the end of the experiment. After 24 hours of incubation, the starting cell number was determined by adding ATPlite to each well of a control plate and recording luminescence on an Envision multimode reader (Revvity, Waltham, MA, USA) ([4]). Compounds were diluted in DMSO in √10-fold steps from 10 mmol/L stocks to obtain 9-point dilution series. After further 31.6-fold dilution in 20 mmol/L HEPES (pH 7.4), the dilution series were added in duplicate to the cells in the 384-well plates to determine the effect of the compounds on cell viability. Vehicle-treated controls were included to determine maximal cell proliferation. The final DMSO concentration was 0.4% (v/v) in all wells. After incubation for an additional 72 hours, the ATP content was measured in each well using ATPlite. The luminescent signal in inhibitor-treated wells was normalized to vehicle-treated control wells to determine the percentage viability at each concentration. Cell doublings were determined by relating the cell number of vehicle-treated controls to the starting cell number for each cell line. The viability assay of a cell line was repeated when the cell doubling deviated > 2-fold from the historic doubling as determined by multiple independent experiments. The quality of the complete assay was determined by a parallel test with doxorubicin on two cell lines. IC50 values were calculated by fitting a four-parameter logistic model to the percentage viability values using IDBS XLfit5 (IDBS, Guildford, United Kingdom). All curves were visually inspected and submitted to an F-test as implemented in IDBS XLfit5. Curves with an F-value above 1.5 were invalidated and IC50 values were maximized at the highest concentration.

[2] = test system: LS411N; settings: Homo sapiens, LS-411N; LS411N cell line, 72 hours incubation
Description: as §1

[3] = test system: J82; settings: Homo sapiens; J82 cell line, 72 hours incubation
Description: as §1

[4] = test system: AP-1060; settings: Homo sapiens; AP-1060 cell line, 72 hours incubation
Description: as §1

[5] = test system: HCT 15; settings: Homo sapiens; HCT 15 cell line, 72 hours incubation
Description: as §1

[6] = test system: U-87MG ATCC; settings: Homo sapiens; U-87MG ATCC cell line, 72 hours incubation
Description: as §1

[7] = test system: UM-UC-3; settings: Homo sapiens, UMUC3; UM-UC-3 cell line, 72 hours incubation
Description: as §1

[8] = test system: L-82; settings: Homo sapiens; L-82 cell line, 72 hours incubation
Description: as §1

[9] = test system: A-498; settings: Homo sapiens, A498; A-498 cell line, 72 hours incubation
Description: as §1

[10] = test system: BT-474; settings: Homo sapiens; BT-474 cell line, 72 hours incubation
Description: as §1

[11] = test system: SNU-5; settings: Homo sapiens; SNU-5 cell line, 72 hours incubation
Description: as §1

[12] = test system: K-562; settings: Homo sapiens, K562; K-562 cell line, 72 hours incubation
Description: as §1

[13] = test system: HEC-6; settings: Homo sapiens; HEC-6 cell line, 72 hours incubation
Description: as §1

[14] = test system: NCI-H2228; settings: Homo sapiens; NCI-H2228 cell line, 72 hours incubation
Description: as §1

[15] = test system: SUP-T1; settings: Homo sapiens; SUP-T1 cell line, 72 hours incubation
Description: as §1

[16] = test system: A-427; settings: Homo sapiens; A-427 cell line, 72 hours incubation
Description: as §1

[17] = test system: MV4-11; settings: Homo sapiens; MV4-11 cell line, 72 hours incubation
Description: as §1

[18] = test system: ACHN; settings: Homo sapiens; ACHN cell line, 72 hours incubation
Description: as §1

[19] = test system: NCI-H2052; settings: Homo sapiens; NCI-H2052 cell line, 72 hours incubation
Description: as §1

[20] = test system: Jurkat E6.1; settings: Homo sapiens; Jurkat E6.1 cell line, 72 hours incubation
Description: as §1

[21] = test system: SW1573; settings: Homo sapiens; SW1573 cell line, 72 hours incubation
Description: as §1

[22] = test system: Hs 746.T; settings: Homo sapiens, Hs746T; Hs 746.T cell line, 72 hours incubation
Description: as §1

[23] = test system: DoTc2 4510; settings: Homo sapiens; DoTc2 4510 cell line, 72 hours incubation
Description: as §1

[24] = test system: DEL; settings: Homo sapiens; DEL cell line, 72 hours incubation
Description: as §1

[25] = test system: SK-N-FI; settings: Homo sapiens; SK-N-FI cell line, 72 hours incubation
Description: as §1

[26] = test system: SW837; settings: Homo sapiens; SW837 cell line, 72 hours incubation
Description: as §1

[27] = test system: CCRF-HSB-2; settings: Homo sapiens; CCRF-HSB-2 cell line, 72 hours incubation
Description: as §1

[28] = test system: NOMO-1; settings: Homo sapiens; NOMO-1 cell line, 72 hours incubation
Description: as §1

[29] = test system: SHP-77; settings: Homo sapiens, SHP77; SHP-77 cell line, 72 hours incubation
Description: as §1

[30] = test system: SW982; settings: Homo sapiens; SW982 cell line, 72 hours incubation
Description: as §1

[31] = test system: H9; settings: Homo sapiens; H9 cell line, 72 hours incubation
Description: as §1

`O=C(c1ccc(Oc2ccccc2)cc1Cl)c1c[nH]c2ncnc(N[C@@H]3CC[C@@H](CO)OC3)c12` [nemtabrutinib] showed an IC50 [1] of 0.578 µM, an IC50 [2] of 0.767 µM and an IC50 [3] of 7.93 µM. It also gave an IC50 [4] of 0.736 µM, an IC50 [5] of 5.78 µM and an IC50 [6] of 12 µM. For the same compound, the IC50 [7] was 5.35 µM, the IC50 [8] was 14 µM and the IC50 [9] was 6.4 µM. The IC50 [10] was 3.11 µM, the IC50 [11] was 8.05 µM and the IC50 [12] was 2.57 µM. The IC50 [13] was 22.3 µM, the IC50 [14] was 7.5 µM and the IC50 [15] was 12.1 µM. The IC50 [16] was 1.24 µM, the IC50 [17] was 1.35 µM and the IC50 [18] was 2.29 µM. For the same compound, the IC50 [19] was 5.24 µM, the IC50 [20] was 0.267 µM and the IC50 [21] was 6.3 µM. For the same compound, the IC50 [22] was 11.4 µM, the IC50 [23] was 1.41 µM and the IC50 [24] was 15.4 µM. The IC50 [25] was 3.94 µM, the IC50 [26] was 3.81 µM and the IC50 [27] was 0.37 µM. For the same compound, the IC50 [28] was 4.78 µM, the IC50 [29] was 14.6 µM and the IC50 [30] was 10.7 µM. For the same compound, the IC50 [31] was 1.32 µM.
